How the values were obtained:
[1] = test system: MCF7; test: Antiproliferative activity against estrogen receptor expressing human MCF7 cells; type: functional
[2] = test system: K562; test: Antiproliferative activity against human K562 cells; type: functional
[3] = Antiproliferative activity against HUVEC cells; type: cell-based; conditions: human
[4] = Antiproliferative activity against estrogen receptor negative human MDA-MB-436 cells
[5] = test system: HeLa; test: Cytotoxicity against human HeLa cells; type: functional

Row | SMILES | GI50 [1] | GI50 [2] | GI50 [3] | GI50 [4] | CC50 [5]
1 | O=c1c(-c2cc(O)cc(O)c2)coc2cc(O)ccc12 | 73 µM | > 185 µM | > 185 µM | 169 µM | 160 µM
2 | O=c1c([C@]2(O)CC[C@@H](O)[C@H](O)C2)coc2cc(O)cc(O)c12 | 84 µM | > 162 µM | > 162 µM | 138 µM | > 162 µM
3 | COc1c(O)ccc(-c2coc3cc(O)ccc3c2=O)c1O | 37 µM |  |  | 68 µM | 
4 | O=c1c(-c2cc(O)cc(O)c2)coc2cc(O)cc(O)c12 | 65 µM | 75 µM | 133 µM | > 174 µM | 134 µM
5 | O=c1c(-c2ccc(O)cc2)coc2cc(O)ccc12 [DAIDZEIN] | 122 µM |  |  | > 196 µM | 
6 | COc1cc(-c2coc3cc(O)ccc3c2=O)ccc1O | 42 µM |  |  | 75 µM | 
7 | O=c1c(-c2ccc(O)cc2)coc2cc(O)cc(O)c12 [GENISTEIN] | 10 µM |  |  | 17 µM | 
8 | COc1c(O)ccc(-c2coc3cc(O)cc(O)c3c2=O)c1O | 15 µM | 48 µM | 64 µM | 32 µM | 77 µM
9 | O=c1c2c(O)cc(O)cc2occ1[C@]1(O)CC[C@@H](O)CC1 | 75 µM |  |  | 147 µM | 
10 | O=c1c(C2=CCCC(O)C2O)coc2cc(O)cc(O)c12 (stereo not given) | 6 µM | > 172 µM | 17 µM | 17 µM | 81 µM

— ChEMBL document CHEMBL1154347, “Isoflavones with unusually modified B-rings and their evaluation as antiproliferative agents” (Bioorg Med Chem Lett, 2009)
